Drawing on ChEMBL document CHEMBL1148604 (J Med Chem, 2006), this text covers inhibition, MIC and IC50 for 17 compounds.

A word on the inhibition: it is the share of the control response that was lost under treatment. Usually MIC stands for the least concentration at which growth counts as inhibited. Higher therefore signals a need for much substance. Usually IC50 stands for the midpoint of a concentration-inhibition curve.

Assay [1] has as its target T1, 3-oxoacyl-[acyl-carrier-protein] synthase 3 (Escherichia coli) (UniProt C3TDZ2).
T1 sequence (whole entry): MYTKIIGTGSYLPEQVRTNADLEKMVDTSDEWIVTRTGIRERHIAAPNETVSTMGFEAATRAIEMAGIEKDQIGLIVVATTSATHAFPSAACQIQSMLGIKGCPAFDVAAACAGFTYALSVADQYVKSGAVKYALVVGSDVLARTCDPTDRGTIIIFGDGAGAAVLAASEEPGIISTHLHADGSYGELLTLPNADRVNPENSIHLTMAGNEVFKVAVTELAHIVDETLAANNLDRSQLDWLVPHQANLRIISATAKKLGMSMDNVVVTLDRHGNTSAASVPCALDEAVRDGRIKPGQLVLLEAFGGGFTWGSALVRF
In words: Inhibitory activity against FabH from Escherichia coli ANSI at 100 uM.

Assay [2] has as its target T2, Mycobacterial beta-ketoacyl-[acyl-carrier-protein] synthase III (Mycobacterium tuberculosis) (UniProt P9WNG3).
T2 sequence (whole entry): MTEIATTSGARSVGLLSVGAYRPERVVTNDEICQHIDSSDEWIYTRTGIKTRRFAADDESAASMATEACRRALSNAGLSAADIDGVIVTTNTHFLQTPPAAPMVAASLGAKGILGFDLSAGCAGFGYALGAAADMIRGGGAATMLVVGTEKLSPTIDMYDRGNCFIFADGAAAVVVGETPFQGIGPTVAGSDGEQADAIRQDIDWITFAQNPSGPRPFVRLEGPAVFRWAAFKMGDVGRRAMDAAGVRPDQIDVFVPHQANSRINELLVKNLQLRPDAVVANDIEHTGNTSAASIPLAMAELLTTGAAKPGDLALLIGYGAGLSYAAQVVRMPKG
As to the kind of experiment: Inhibitory activity against FabH from Mycobacterium tuberculosis H37Rv at 100 uM.

Assay [3] deals with T3, 3-oxoacyl-[acyl-carrier-protein] synthase 1 (Mycobacterium tuberculosis) (UniProt P9WQD9).
T3 sequence (whole entry): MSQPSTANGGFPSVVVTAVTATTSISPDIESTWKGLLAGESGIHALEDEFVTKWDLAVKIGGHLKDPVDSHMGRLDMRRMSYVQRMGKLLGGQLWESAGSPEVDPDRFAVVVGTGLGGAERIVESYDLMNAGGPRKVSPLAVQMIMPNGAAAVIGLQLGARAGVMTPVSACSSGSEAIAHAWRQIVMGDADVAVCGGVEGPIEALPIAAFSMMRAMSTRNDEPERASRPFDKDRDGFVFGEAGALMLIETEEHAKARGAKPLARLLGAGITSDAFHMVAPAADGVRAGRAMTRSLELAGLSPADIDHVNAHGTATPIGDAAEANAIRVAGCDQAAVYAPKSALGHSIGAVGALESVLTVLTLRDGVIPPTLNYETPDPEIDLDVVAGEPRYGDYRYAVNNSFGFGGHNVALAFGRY
As to the kind of experiment: Inhibitory activity against KasA from Mycobacterium tuberculosis H37Rv at 100 uM.

A further assay concerns Escherichia coli. In words: Inhibitory activity against Escherichia coli ANSI. It counts as functional.
Assay [4] deals with Mycobacterium tuberculosis. As to the kind of experiment: Inhibitory activity against Mycobacterium tuberculosis H37Rv. The assay is classed as functional.
Assay [5] addresses T4, 3-oxoacyl-[acyl-carrier-protein] synthase 3 (Escherichia coli, UniProt C3TDZ2).
T4 sequence (C3TDZ2 whole entry): T1 sequence (whole entry)
As to the kind of experiment: Inhibitory activity against FabH from Escherichia coli ANSI.

Assay [6] concerns the target T5, 3-oxoacyl-[acyl-carrier-protein] synthase 2 (Mycobacterium tuberculosis, UniProt P9WQD7).
T5 sequence (P9WQD7 whole entry): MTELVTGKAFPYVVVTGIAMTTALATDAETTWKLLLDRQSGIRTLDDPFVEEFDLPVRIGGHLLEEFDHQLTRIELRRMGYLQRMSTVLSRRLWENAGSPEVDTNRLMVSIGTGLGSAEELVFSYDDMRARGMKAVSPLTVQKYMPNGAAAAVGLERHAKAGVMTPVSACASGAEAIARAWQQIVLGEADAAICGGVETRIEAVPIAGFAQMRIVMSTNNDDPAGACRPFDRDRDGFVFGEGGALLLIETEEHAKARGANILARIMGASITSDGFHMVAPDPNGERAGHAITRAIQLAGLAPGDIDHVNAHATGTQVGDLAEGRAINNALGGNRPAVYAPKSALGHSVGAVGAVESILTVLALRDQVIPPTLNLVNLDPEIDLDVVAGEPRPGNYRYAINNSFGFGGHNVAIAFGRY
As to the kind of experiment: Inhibitory activity against KasB from Mycobacterium tuberculosis H37Rv.

Assay [7] concerns the target T6, 3-oxoacyl-[acyl-carrier-protein] synthase 2 (Mycobacterium tuberculosis) (UniProt P9WQD7).
T6 sequence (whole entry): T5 sequence (P9WQD7 whole entry)
As to the kind of experiment: Inhibitory activity against KasB from Mycobacterium tuberculosis H37Rv at 100 uM.

The target of assay [8] is T7, 3-oxoacyl-[acyl-carrier-protein] synthase 1 (Escherichia coli K-12) (UniProt P0A953).
T7 sequence (whole entry): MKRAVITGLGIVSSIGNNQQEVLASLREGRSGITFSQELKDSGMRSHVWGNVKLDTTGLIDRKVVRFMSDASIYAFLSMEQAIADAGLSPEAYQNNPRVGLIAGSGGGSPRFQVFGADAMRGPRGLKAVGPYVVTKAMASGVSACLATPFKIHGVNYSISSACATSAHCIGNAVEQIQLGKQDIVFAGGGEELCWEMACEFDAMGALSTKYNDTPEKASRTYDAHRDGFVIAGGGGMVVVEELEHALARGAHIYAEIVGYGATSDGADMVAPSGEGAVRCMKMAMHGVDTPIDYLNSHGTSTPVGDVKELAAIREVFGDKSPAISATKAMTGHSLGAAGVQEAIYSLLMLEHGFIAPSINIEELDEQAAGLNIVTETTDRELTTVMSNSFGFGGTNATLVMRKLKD
As to the kind of experiment: Inhibitory activity against FabB from Escherichia coli ANSI at 100 uM.

Assay [9] deals with T8, Mycobacterial beta-ketoacyl-[acyl-carrier-protein] synthase III (Mycobacterium tuberculosis, UniProt P9WNG3).
T8 sequence (P9WNG3 whole entry): T2 sequence (whole entry)
In words: Inhibitory activity against FabH from Mycobacterium tuberculosis H37Rv.

The target in a further assay is Fatty acid synthase (Homo sapiens, UniProt P49327). As to the kind of experiment: Inhibitory activity against human FAS1 at 100 uM.
Sequence of Fatty acid synthase (P49327 whole entry, looked up): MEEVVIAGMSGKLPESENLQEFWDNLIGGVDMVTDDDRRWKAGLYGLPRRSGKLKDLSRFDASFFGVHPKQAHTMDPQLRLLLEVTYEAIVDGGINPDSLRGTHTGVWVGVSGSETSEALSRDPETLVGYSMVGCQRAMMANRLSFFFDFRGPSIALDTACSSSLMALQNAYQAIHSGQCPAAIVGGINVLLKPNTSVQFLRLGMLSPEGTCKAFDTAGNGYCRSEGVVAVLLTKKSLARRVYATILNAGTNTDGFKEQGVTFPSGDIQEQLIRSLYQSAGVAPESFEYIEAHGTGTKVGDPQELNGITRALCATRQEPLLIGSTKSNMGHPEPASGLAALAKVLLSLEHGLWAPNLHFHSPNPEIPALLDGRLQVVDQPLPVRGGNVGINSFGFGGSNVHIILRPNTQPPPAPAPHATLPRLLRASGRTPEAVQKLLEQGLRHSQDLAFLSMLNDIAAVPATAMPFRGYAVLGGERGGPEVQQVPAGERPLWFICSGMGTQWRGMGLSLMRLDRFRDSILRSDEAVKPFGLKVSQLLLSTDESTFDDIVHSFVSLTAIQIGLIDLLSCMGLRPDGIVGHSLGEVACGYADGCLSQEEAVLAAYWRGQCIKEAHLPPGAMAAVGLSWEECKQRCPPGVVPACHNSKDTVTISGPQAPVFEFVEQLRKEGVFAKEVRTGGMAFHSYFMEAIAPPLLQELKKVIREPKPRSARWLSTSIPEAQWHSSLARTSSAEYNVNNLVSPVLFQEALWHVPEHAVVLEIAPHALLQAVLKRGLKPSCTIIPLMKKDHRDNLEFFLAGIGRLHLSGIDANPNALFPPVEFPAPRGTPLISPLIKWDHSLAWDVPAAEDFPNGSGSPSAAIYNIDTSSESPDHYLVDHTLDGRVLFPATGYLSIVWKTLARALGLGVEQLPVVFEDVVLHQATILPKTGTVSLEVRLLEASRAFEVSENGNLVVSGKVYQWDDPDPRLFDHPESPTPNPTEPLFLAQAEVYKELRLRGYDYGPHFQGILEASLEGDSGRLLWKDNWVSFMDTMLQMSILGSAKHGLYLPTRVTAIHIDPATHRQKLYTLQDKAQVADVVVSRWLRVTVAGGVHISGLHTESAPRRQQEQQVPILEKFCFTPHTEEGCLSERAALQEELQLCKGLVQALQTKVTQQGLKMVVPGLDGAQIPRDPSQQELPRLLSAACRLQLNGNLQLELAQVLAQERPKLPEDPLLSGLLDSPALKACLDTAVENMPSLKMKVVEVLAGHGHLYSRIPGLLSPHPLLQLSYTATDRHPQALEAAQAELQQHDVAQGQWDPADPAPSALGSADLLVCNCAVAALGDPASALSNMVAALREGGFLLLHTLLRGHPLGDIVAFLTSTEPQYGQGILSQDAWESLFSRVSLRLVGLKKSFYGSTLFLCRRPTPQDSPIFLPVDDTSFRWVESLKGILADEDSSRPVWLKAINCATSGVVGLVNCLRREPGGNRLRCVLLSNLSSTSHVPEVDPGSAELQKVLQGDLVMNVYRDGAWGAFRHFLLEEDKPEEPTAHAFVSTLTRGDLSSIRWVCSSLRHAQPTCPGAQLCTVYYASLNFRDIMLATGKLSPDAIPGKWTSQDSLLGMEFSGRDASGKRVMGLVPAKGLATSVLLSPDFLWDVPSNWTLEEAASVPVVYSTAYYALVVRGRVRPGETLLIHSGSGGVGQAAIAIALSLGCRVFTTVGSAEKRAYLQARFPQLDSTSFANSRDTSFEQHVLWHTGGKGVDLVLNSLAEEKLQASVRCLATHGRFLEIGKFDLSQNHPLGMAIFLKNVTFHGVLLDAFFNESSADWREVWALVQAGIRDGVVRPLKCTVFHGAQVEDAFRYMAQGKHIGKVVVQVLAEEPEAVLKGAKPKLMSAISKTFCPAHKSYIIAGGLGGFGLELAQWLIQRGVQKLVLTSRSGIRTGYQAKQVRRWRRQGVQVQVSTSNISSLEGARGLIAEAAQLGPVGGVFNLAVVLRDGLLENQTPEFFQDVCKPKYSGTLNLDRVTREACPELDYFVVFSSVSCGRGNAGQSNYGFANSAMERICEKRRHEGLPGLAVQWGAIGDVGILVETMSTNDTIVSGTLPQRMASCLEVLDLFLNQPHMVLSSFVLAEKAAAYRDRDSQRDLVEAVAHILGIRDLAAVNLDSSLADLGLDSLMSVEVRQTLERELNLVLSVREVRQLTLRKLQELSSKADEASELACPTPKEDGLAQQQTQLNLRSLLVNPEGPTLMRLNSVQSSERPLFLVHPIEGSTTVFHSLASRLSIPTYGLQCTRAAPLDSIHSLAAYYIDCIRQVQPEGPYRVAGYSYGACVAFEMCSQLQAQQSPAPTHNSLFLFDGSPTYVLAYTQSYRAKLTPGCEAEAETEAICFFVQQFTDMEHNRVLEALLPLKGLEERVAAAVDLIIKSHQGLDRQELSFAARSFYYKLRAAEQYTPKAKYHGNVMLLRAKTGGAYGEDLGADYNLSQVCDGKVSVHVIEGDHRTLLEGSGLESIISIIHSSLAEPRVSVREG
The target in assay [10] is T9, 3-oxoacyl-[acyl-carrier-protein] synthase 1 (Escherichia coli K-12, UniProt P0A953).
T9 sequence (P0A953 whole entry): T7 sequence (whole entry)
In words: Inhibitory activity against FabB from Escherichia coli ANSI.

The next assay has as its target wild-type apo-KasA (Mycobacterium tuberculosis, UniProt P9WQD9). As to the kind of experiment: Inhibitory activity against KasA from Mycobacterium tuberculosis H37Rv.

In brackets after ≈: the same amount, converted by molar mass. Activity calls are given as the source filed them. No cut-off for these calls is given here.

Turning to `CC(C)=CCC/C(C)=C/CC/C(C)=C/CC1(C)SC(O)=C(C)C1=O` (centres undefined), the inhibition in [1] and in assay [7] was less than 30% in each case. The inhibition result in assay [2], in assay [3] and in assay [8] was “inactive” each time. For the same compound, the MIC in the assay with Escherichia coli was 200 µM (≈ 69.7 µg/mL); in assay [4] it was greater than 1000 µM. Also, the IC50 in assay [5] and in assay [6] was greater than 100 µM in each case.

In the case of `CC1=C(O)C(C)(Cc2ccc(C(F)(F)F)cc2)SC1=O` (centres undefined), the inhibition entry in [1], in assay [3], in [7] and in assay [8] was “inactive” throughout. In assay [2], this compound showed an inhibition of less than 30%. The minimal inhibitory concentration (MIC) is greater than 1000 µM against Escherichia coli and 1000 µM (≈ 302 µg/mL) in assay [4]. Besides, in assay [9], the half-inhibitory concentration (IC50) is greater than 100 µM.

Turning to `C=C/C=C/C1(C)SC(=O)C(C)=C1O` (centres undefined), the inhibition entry on Fatty acid synthase is “inactive”. For the same compound, the MIC with Escherichia coli stood at 200 µM (≈ 39.3 µg/mL); in assay [4] it was 1000 µM (≈ 196 µg/mL). The IC50 in [10] is 500 µM; in assay [6] it was 400 µM; at wild-type apo-KasA, 25 µM.

On to `CCCCCCCCC1(C)SC(O)=C(C)C1=O` (centres undefined), for which the inhibition in assay [1] and in assay [2] was less than 30% throughout. The inhibition entry in assay [3], in assay [7] and in [8] was “inactive” in each case. For the same compound, the MIC against Escherichia coli is 200 µM (≈ 51.3 µg/mL); in assay [4], greater than 1000 µM. The half-inhibitory concentration (IC50) in assay [5] and in assay [9] was greater than 100 µM each time.

On to `C=CCCCC1(C)SC(=O)C(C)=C1O` (centres undefined), for which the inhibition result in assay [1], in [2], in assay [7] and in assay [8] was “inactive” in each case. In [3], this compound displayed an inhibition of less than 30%. Further, the minimum inhibitory concentration (MIC) (in the assay on Escherichia coli; in [4]) was greater than 1000 µM throughout. This compound also displayed an IC50 against wild-type apo-KasA greater than 100 µM.

Regarding `CC1=C(O)C(C)(Cc2ccc(Cl)cc2Cl)SC1=O` (centres undefined), the inhibition result in assay [1], in assay [3], in assay [7] and in assay [8] was “inactive” in each case. The inhibition in assay [2] is less than 30%. Moreover, the results for the minimal inhibitory concentration (MIC) (against Escherichia coli; in [4]) were 150 µM (≈ 45.5 µg/mL) and 500 µM (≈ 152 µg/mL), respectively. In assay [9], this compound gave a concentration for half-maximal inhibition (IC50) greater than 100 µM.

Regarding `CCC(C)C1(C)SC(O)=C(C)C1=O` (centres undefined), the inhibition entry in [1], in [3], in assay [7] and in assay [8] was “inactive” each time. In assay [2], this compound showed an inhibition of less than 30%. The minimum inhibitory concentration (MIC) (with Escherichia coli; in assay [4]) was greater than 1000 µM in each case. The compound also yielded a concentration for half-maximal inhibition (IC50) in [9] greater than 100 µM.

Consider `C=CC(C)C[C@@]1(C)SC(O)=C(C)C1=O` (some centres undefined), for which the inhibition result (in assay [3]; at Fatty acid synthase; in [7]; in assay [8]) was “inactive” each time. Moreover, the minimal inhibitory concentration (MIC) in the assay on Escherichia coli is greater than 200 µM; in assay [4], greater than 1000 µM.

In assay [1], `CC1=C(O)C(C)(CC2CC2)SC1=O` (centres undefined) came in with an inhibition of less than 30%. In addition, the inhibition result in [2], in assay [3], in assay [7] and in assay [8] was “inactive” each time. The MIC (against Escherichia coli; in assay [4]) was greater than 1000 µM each time. The compound further displayed an IC50 in [5] greater than 100 µM.

Take `C/C=C/C(C)=C/[C@@]1(C)SC(O)=C(C)C1=O`: the inhibition result on Fatty acid synthase is “inactive”. Moreover, the minimal inhibitory concentration (MIC) with Escherichia coli was determined as 200 µM (≈ 44.9 µg/mL); in assay [4], 1000 µM (≈ 224 µg/mL). Further, the half-maximal inhibitory concentration (IC50) worked out at 500 µM in assay [10], 400 µM in [6] and 50 µM against wild-type apo-KasA.

For the compound `CC[C@H](C)CC1(C)SC(O)=C(C)C1=O` (some centres undefined), the inhibition in assay [1] is less than 30%. The inhibition result in assay [2], in assay [3], in assay [7] and in assay [8] was “inactive” in each case. The minimum inhibitory concentration (MIC) against Escherichia coli is greater than 1000 µM; in assay [4], 500 µM (≈ 107 µg/mL). In assay [5], this compound registered an IC50 greater than 100 µM.

Take `CC1=C(O)C(C)(Cc2ccc(Cl)c(Cl)c2)SC1=O` (centres undefined): the inhibition in assay [1] and in [2] was less than 30% in each case. For the same compound, the inhibition entry in assay [3], in [7] and in assay [8] was “inactive” throughout. Further, the results for the MIC (with Escherichia coli; in assay [4]) were greater than 1000 µM and 500 µM (≈ 152 µg/mL), respectively. In addition, the IC50 in assay [5] and in assay [9] was greater than 100 µM throughout.

`C=CCCCCC1(C)SC(=O)C(C)=C1O` (centres undefined): the inhibition entry in assay [1], in assay [2], in [7] and in assay [8] was “inactive” in each case. Also, in assay [3], the inhibition is less than 30%. In addition, the figures for the MIC (in the assay with Escherichia coli; in [4]) were greater than 1000 µM and 1000 µM (≈ 226 µg/mL), respectively. The concentration for half-maximal inhibition (IC50) on wild-type apo-KasA is greater than 100 µM.

For `CC1=C(O)C(C)(C2CCCCC2)SC1=O` (centres undefined), the inhibition entry in [1], in assay [3], in assay [7] and in [8] was “inactive” throughout. For the same compound, in [2], the inhibition is less than 30%. The MIC with Escherichia coli is greater than 1000 µM; in [4], 1000 µM (≈ 226 µg/mL). Besides, the 50% inhibitory concentration (IC50) in assay [9] was greater than 100 µM.

Consider `CC(C)=CCC1(C)SC(O)=C(C)C1=O` (centres undefined), for which the inhibition result in [1], in [2], in assay [7] and in assay [8] was “inactive” each time. The same compound displayed an inhibition in assay [3] of less than 30%. Besides, the MIC (against Escherichia coli; in assay [4]) was greater than 1000 µM in each case. Besides, the IC50 against wild-type apo-KasA is greater than 100 µM.

With `CCC(C)C[C@@]1(C)SC(O)=C(C)C1=O` (some centres undefined), the inhibition entry (in assay [3]; at Fatty acid synthase; in [7]; in [8]) was “inactive” in each case. For the same compound, the MIC against Escherichia coli is greater than 200 µM; in [4] it was greater than 1000 µM.

`CC/C(C)=C/[C@@]1(C)SC(O)=C(C)C1=O`: the inhibition result (in assay [3]; at Fatty acid synthase; in [7]; in assay [8]) was “inactive” in each case. The MIC against Escherichia coli was greater than 200 µM; in [4], greater than 1000 µM.
